Values of other authors as cited in publication PMC8886800 (Journal of the American Chemical Society, 2021).

In the case of Ac-KLTWMELY QLAYKGI [MA], the “binding to VEGF receptors (reported)” value (VEGFR) is given as “demonstrated binding to VEGF receptors” and the “effect on angiogenesis (reported)” value (angiogenesis) is given as “capable of inhibiting angiogenesis”.
